Here are results for 24 molecules from patent publication US20080021056A1, “Fused, Tricyclic Sulfonamide Inhibitors of Gamma Secretase” (priority 2006, published 2008).

In this assay the target is T1, gamma-secretase (Homo sapiens, UniProt P49768).
T1 construct: partially purified extract of IMR-32 cell membranes as the gamma-secretase enzyme preparation; endogenous in cells; host or cells: IMR-32 cell membranes (partially purified extract)
Kind of assay: Gamma-secretase APP enzyme assay. The following applies: cleavage of MBP-C125 Swe substrate at the Aβ40 site, partially purified extract of IMR-32 cell membranes, ELISA. In kind it is biochemical. The source says: The gamma-secretase APP enzyme assay was designed to measure the specific proteolytic cleavage of an APP substrate (MBP-C125 Swe fusion protein) at the Aβ40 site. The assay used a partially purified extract of IMR-32 cell membranes as the gamma-secretase enzyme preparation and a recombinant fusion protein containing the C-terminal 125 amino acids of the Swedish variant of the APP (MBP-C125swe) as the substrate. This assay involved two steps beginning with the enzymatic reaction generating a cleavage product that was captured with an immobilized antibody specific for the neo-epitope Aβ40 site. The captured cleavage product was then detected in a sandwich ELISA assay with a biotinylated reporter antibody that is specific to Aβ (17-28). Streptavidin-linked alkaline phosphatase was then added that would generate a fluorescent signal proportional to the amount of cleavage product. This assay was used to discover small molecule inhibitors of gamma-secretase.
Briefly, a 149 mg/ml solution of BIGCHAP detergent was made with water at 42° C. and then rotated for 30 minutes at the same temperatures This warmed solution of BigCHAPS (N,N-Bis(3-D-gluconamidopropyl)cholamide) detergent was used to dissolve Brain Extract Type-V (lipid containing a minimum of 40% phosphatidylethanolamine) from Signa (St. Louis, Mo.) to a concentration of 8 mg/ml. This solution containing BigCHAPS and lipid at 8 mg/ml is then diluted to 0.53 mg/ml lipid with a pre-warmed solution of Hepes and sodium chloride. This final solution containing Hepes buffer, sodium chloride, BigCHAPS detergent and lipid is used to create working solutions of both gamma-secretase (25 Units) and the MBP-C125 substrate (0.05 mg/ml).
Gamma-secretase was then added to a 96-well micro-titre plate and then incubated with various concentrations of inhibitor for 30 minutes at 37° C. MBPC125 substrate was then added to initiate the reaction that would run for two hours at 37° C. The reaction was quenched with the addition of SDS to a final concentration of 0.1% and then 100 μl of the reaction mixture was transferred to a capture ELISA plate and incubated overnight at 4° C. Detection of the cleavage product was performed using a standard sandwich ELISA assay and quantified using a six point standard curve.
For orientation: In an ELISA, binding on a coated surface is turned into a signal by an enzyme label.

As for `O=S(=O)(c1ccc(C(F)(F)F)cc1)N1c2cc(F)c(F)cc2-c2[nH]ncc2C1C1CC1` (racemic) [4-cyclopropyl-7,8-difluoro-5-(4-(trifluoromethyl)phenylsulfonyl)-4,5-dihydro-1H-pyrazolo[4,3-c]quinoline], the IC50 (in general, the concentration that inhibits the measured activity by half) was in the range of 0.1 to 100 nM.
Same read-out and setting: under `O=S(=O)(c1ccc(C(F)(F)F)cc1)N1c2ccc(F)cc2-c2[nH]ncc2C1C1CC1` (racemic) [4-cyclopropyl-8-fluoro-5-(4-(trifluoromethyl)phenylsulfonyl)-4,5-dihydro-1H-pyrazolo[4,3-c]quinoline] stands 0.1 to 100 nM; under `CC1c2cn[nH]c2C2CCCCC2N1S(=O)(=O)c1ccc(Cl)cc1` (racemic) [5-(4-chlorophenylsulfonyl)-4-methyl-4,5,5a,6,7,8,9,9a-octahydro-1H-pyrazolo[4,3-c]quinoline], 0.1 to 100 nM; under `CC1c2c[nH]nc2-c2ccccc2N1S(=O)(=O)c1ccc(Cl)cc1` (racemic) [5-[(4-chlorophenyl)sulfonyl]-4-methyl-4,5-dihydro-2H-pyrazolo[4,3-c]quinoline], 0.1 to 100 nM.
The molecule `CC1c2c[nH]nc2-c2cc(F)ccc2N1S(=O)(=O)c1ccc(Cl)cc1` (racemic) [5-[(4-chlorophenyl)sulfonyl]-8-fluoro-4-methyl-4,5-dihydro-2H-pyrazolo[4,3-c]quinoline] showed an IC50 of 0.1 to 100 nM.
On the same count and under the same terms, under `CC1c2cn[nH]c2-c2cc(F)ccc2N1S(=O)(=O)c1cccnc1` (racemic) [8-fluoro-4-methyl-5-(pyridin-3-ylsulfonyl)-4,5-dihydro-1H-pyrazolo[4,3-c]quinoline] stands 101 to 500 nM; under `O=S(=O)(c1ccc(C(F)(F)F)cc1)N1c2cc(F)c(F)cc2-c2[nH]ncc2C1C1CC1` (single isomer, unassigned) [4-cyclopropyl-7,8-difluoro-5-(4-(trifluoromethyl)phenylsulfonyl)-4,5-dihydro-1H-pyrazolo[4,3-c]quinoline], 0.1 to 100 nM; under `O=S(=O)(c1ccc(F)cc1)N1c2cc(F)c(F)cc2-c2n[nH]cc2C1C1CC1` (single isomer, unassigned) [4-cyclopropyl-7,8-difluoro-5-(4-fluorophenylsulfonyl)-4,5-dihydro-2H-pyrazolo[4,3-c]quinoline], 0.1 to 100 nM.
Take `O=S(=O)(c1ccc(C(F)(F)F)nc1)N1c2cc(F)c(F)cc2-c2[nH]ncc2C1C1CC1` (single isomer, unassigned) [4-cyclopropyl-7,8-difluoro-5-(6-(trifluoromethyl)pyridin-3-ylsulfonyl)-4,5-dihydro-1H-pyrazolo[4,3-c]quinoline]: the IC50 was 0.1 to 100 nM (enantiomer A) and 0.1 to 100 nM (enantiomer B).
As to `O=S(=O)(c1ccc(C(F)(F)F)cc1)N1c2ccc(F)cc2-c2[nH]ncc2C1C1CC1` (single isomer, unassigned) [4-cyclopropyl-8-fluoro-5-(4-(trifluoromethyl)phenylsulfonyl)-4,5-dihydro-1H-pyrazolo[4,3-c]quinoline], the IC50 by setting is: (enantiomer A) 0.1 to 100 nM; (enantiomer B) 101 to 500 nM.
For the molecule `O=S(=O)(c1ccc(C(F)(F)F)cn1)N1c2ccc(F)cc2-c2[nH]ncc2C1C1CC1` (single isomer, unassigned) [4-cyclopropyl-8-fluoro-5-(5-(trifluoromethyl)pyridin-2-ylsulfonyl)-4,5-dihydro-1H-pyrazolo[4,3-c]quinoline], the IC50 lay within 101 to 500 nM (enantiomer A) and 0.1 to 100 nM (enantiomer B).
`O=S(=O)(c1ccc(C(F)(F)F)nc1)N1c2ccc(F)cc2-c2n[nH]cc2C1C1CC1` (single isomer, unassigned) [4-cyclopropyl-8-fluoro-5-(6-(trifluoromethyl)pyridin-3-ylsulfonyl)-4,5-dihydro-2H-pyrazolo[4,3-c]quinoline]: the half-maximal inhibitory concentration (IC50) lay in the range of 0.1 to 100 nM (enantiomer A) and 0.1 to 100 nM (enantiomer B).
On to `CC1c2c[nH]nc2-c2ccccc2N1S(=O)(=O)c1ccccn1` (single isomer, unassigned) [4-methyl-5-(pyridin-2-ylsulfonyl)-4,5-dihydro-1H-pyrazolo[4,3-c]quinoline], for which the concentration for half-maximal inhibition (IC50) lay within 101 to 500 nM (enantiomer A) and 1000 to 10000 nM (enantiomer B).
For `CC1c2cn[nH]c2C2CCCCC2N1S(=O)(=O)c1ccc(Cl)cc1` (single isomer, unassigned) [5-(4-chlorophenylsulfonyl)-4-methyl-4,5,5a,6,7,8,9,9a-octahydro-1H-pyrazolo[4,3-c]quinoline], the IC50 by setting is: (enantiomer A) 101 to 500 nM; (enantiomer B) 0.1 to 100 nM.
In the case of `CC1c2cn[nH]c2-c2ccc(O)cc2N1S(=O)(=O)c1ccc(Cl)cc1` (single isomer, unassigned) [5-(4-chlorophenylsulfonyl)-4-methyl-4,5-dihydro-1H-pyrazolo[4,3-c]quinolin-7-ol], the IC50 fell in the range of 0.1 to 100 nM (enantiomer A) and 0.1 to 100 nM (enantiomer B).
As to `CC1c2cn[nH]c2-c2cc(O)c(O)cc2N1S(=O)(=O)c1ccc(Cl)cc1` (single isomer, unassigned) [5-(4-chlorophenylsulfonyl)-4-methyl-4,5-dihydro-1H-pyrazolo[4,3-c]quinoline-7,8-diol], the IC50 was 0.1 to 100 nM (enantiomer A) and 101 to 500 nM (enantiomer B).
The matching figures for `CC1c2c[nH]nc2-c2cc(F)c(F)cc2N1S(=O)(=O)c1ccc(Cl)cc1` (single isomer, unassigned) [5-(4-chlorophenylsulfonyl)-7,8-difluoro-4-methyl-4,5-dihydro-2H-pyrazolo[4,3-c]quinoline]: 0.1 to 100 nM and 0.1 to 100 nM.
The matching figures for `O=S(=O)(c1ccc(Cl)s1)N1c2cc(F)c(F)cc2-c2n[nH]cc2C1C1CC1` (single isomer, unassigned) [5-(5-chlorothiophen-2-ylsulfonyl)-4-cyclopropyl-7,8-difluoro-4,5-dihydro-2H-pyrazolo[4,3-c]quinoline]: 0.1 to 100 nM and 0.1 to 100 nM.
In the case of `CC1c2c[nH]nc2-c2cc(F)ccc2N1S(=O)(=O)c1ccc(Cl)cc1` (single isomer, unassigned) [5-[(4-chlorophenyl)sulfonyl]-8-fluoro-4-methyl-4,5-dihydro-2H-pyrazolo[4,3-c]quinoline], the IC50 was 0.1 to 100 nM.
Regarding `CC1c2cn[nH]c2-c2cc(F)c(F)cc2N1S(=O)(=O)c1ccc(C(F)(F)F)cc1` (single isomer, unassigned) [7,8-difluoro-4-methyl-5-(4-(trifluoromethyl)phenylsulfonyl)-4,5-dihydro-1H-pyrazolo[4,3-c]quinoline], the IC50 reads like this: (enantiomer A) 0.1 to 100 nM; (enantiomer B) 101 to 500 nM.
For the molecule `CC1c2cnc(N)nc2-c2cc(F)ccc2N1S(=O)(=O)c1ccc(F)cc1` (single isomer, unassigned) [9-fluoro-6-(4-fluorophenylsulfonyl)-5-methyl-5,6-dihydropyrimido[5,4-c]quinolin-2-amine], the IC50 by setting is: (enantiomer A) 1000 to 10000 nM; (enantiomer B) 101 to 500 nM.
`O=c1c2cnn(S(=O)(=O)c3ccc(Cl)cc3)c2c2ccccc2n1S(=O)(=O)c1ccc(Cl)cc1` [1,5-bis(4-chlorophenylsulfonyl)-1H-pyrazolo[4,3-c]quinolin-4(5H)-one]: the IC50 was in the range of 1000 to 10000 nM.
As for `Cc1noc(C)c1S(=O)(=O)N1c2ccc(F)cc2-c2[nH]ncc2C1C` (stereo not drawn) [4-(8-fluoro-4-methyl-1H-pyrazolo[4,3-c]quinolin-5(4H)-ylsulfonyl)-3,5-dimethylisoxazole], the IC50 lay within 501 to 1000 nM.
On the same count and under the same terms, with `O=S(=O)(c1ccc(OC(F)F)cc1)N1c2ccc(F)cc2-c2n[nH]cc2C1C1CC1` (stereo not drawn) [4-cyclopropyl-5-(4-(difluoromethoxy)phenylsulfonyl)-8-fluoro-4,5-dihydro-1H-pyrazolo[4,3-c]quinoline] the figure was 0.1 to 100 nM.
